According to paper PMC7576608, “Mechanisms of telomerase inhibition by oxidized and therapeutic dNTPs” (Nature Communications, 2020):
Values joined by “and” are separate entries in the source; they are usually repeats but may differ in a detail not shown here. Identical values can stand only once.

How the values were obtained:
telomerase [1] = target: T1, telomerase (Homo sapiens, UniProt O14746); test: Direct telomerase repeat addition assay with radiolabeled dNTPs: dNTP titration, repeat processivity R1/2; type: biochemical; design: made in house; anti-FLAG immunopurification, eluted with 3xFLAG peptide; conditions: for Processivity R 1/2: (TTAGGG)3 primer, remaining three natural dNTPs at cellular concentration
Procedure: This preparation, termed super telomerase, has kinetic properties similar to endogenous telomerase (Supplementary Fig. 1)[29]–[31]. […] Repeat processivity was measured using the convention of calculating the number of repeats synthesized before half of the DNA substrates dissociate from telomerase[33] (Supplementary Fig. 2). 8-oxo-dGTP served as a control since it is an established telomerase chain terminator[12].
Fig. 2 Oxidized and therapeutic dNTPs inhibit telomerase processivity. […] The loading control (*) was a ^32P-end labeled 18-mer oligonucleotide. Numbers on the left indicate the number of added repeats; letters on the right indicate template residue. Images are representative of three independent experiments.
The telomerase assay was as described. […] Reactions containing the modified dNTPs (Trilink Biotechnologies) substituted for their natural dNTP analog are indicated in the figure legends. The reactions were started by the addition of 3 μl (~35 fmol) of immunopurified telomerase eluent, incubated at 37 °C for 1 h, then terminated with 2 μl of […] EDTA and heat inactivated at 65 °C for 20 min. ^32P-end labeled 18-mer loading control (8 fmol) was added to the terminated reactions before purification with an Illustra Microspin G-25 column (GE Healthcare). An equal volume of loading buffer (94% formamide, 0.1× TBE, 0.1% bromophenol blue, 0.1% xylene cyanol) was added to the reaction eluent from the G-25 spin column. The samples were heat denatured for 10 min at 100 °C and loaded onto a 14% denaturing polyacrylamide gel (7 M urea, 1× TBE) and electrophoresed for 90 min at constant 38 W. Samples were imaged using a Typhoon phosphorimager (GE Healthcare).
The processivity was calculated as described[40],[67]. Repeat processivity from the direct telomerase extension assays was calculated as R1/2 (equivalent to the half-time for decay in an exponential time course), which represents the median length of DNA product formed, expressed in terms of number of telomere repeats. First, the total volume counts for each product band extend by one or more telomere repeats were obtained using Image Quant TL. The volume counts were then normalized by dividing by the number of radiolabeled guanosines incorporated into the extended products based on the number of repeats added, termed corrected volume (corr vol). The “percent left behind” (%LB) was calculated for each product band by summing the counts for that product band and for every product band below (shorter products), divided by the total counts for the lane, and then multiplied by 100. The natural log of (100−%LB) was calculated and then plotted vs. repeat number for each product length. A linear regression line was fit to the data to determine the slope of the line. The R1/2 value was calculated by dividing −ln(2) by the slope of each fitted line (R1/2 = −ln(2)/slope).
Number of Repeats Number of Repeats Number of Repeats Number of Repeats
Supplementary Fig 2.Telomerase dNTP titrations and processivity calculations. Telomerase reactions were conducted with (TTAGGG) 3 primer 1 and cellular-concentration dNTPs except that the […]
The loading control (LC) was a 32P-end labeled 18-mer. Numbers on the left indicate the number of added repeats. (d) Processivity was calculated as R1/2 (see Methods). (e) The natural log of (100-%LB) was plotted vs repeat number. A straight line was fit to the data and the R1/2 was calculated by dividing –ln(2) by the slope of each line. Plots shown from one experiment. Images ( a-c) and plots ( e) are representative of, and data are mean + s. d. (d) from, three independent experiments. Source data are provided as a Source Data file.
(1 picture or pasted object on this page, not shown here)

telomerase [2] = target: T1, telomerase; test: Telomerase extension after insertion of modified dNTP (percent of product terminated at each template position); type: biochemical; design: made in house; anti-FLAG immunopurification, eluted with 3xFLAG peptide; conditions: Fig 4a, Primer 3, 50 μM each dTTP, dGTP and dATP or 2-OH-dATP, Mean
Procedure: Direct telomerase assays were conducted with 5 nM ^32P-end labeled primer a and d Primer 3 (AGGGTT)3, b Primer 1 (TTAGGG)3, or c Primer 2 […]. […] Products were separated on denaturing gels. Letters on the y-axis of the graph indicate the template base; P indicates unextended 18-mer primer. Graphs represent percent of product terminated at each template position as a function of total products. Images are representative of, and data are the mean ± s.d. from, three independent experiments. Source data are provided as a Source Date file.
The reactions were started by the addition of 3 μl of immunopurified telomerase eluent, incubated at 37 °C for 1 h, then terminated with 2 μl of […] and heat inactivated at 65 °C for 20 min. An equal volume of loading buffer (94% formamide, 0.1× TBE, 0.1% bromophenol blue, 0.1% xylene cyanol) was added to the reaction eluent. The samples were heat denatured for 10 min at 100 °C and loaded onto a 14% denaturing acrylamide gel (7 M urea, 1× TBE) and electrophoresed for 90 min at constant 38 W. Samples were imaged using a Typhoon phosphorimager (GE Healthcare). Percent primer extension was calculated with ImageQuant TL 8.2 by measuring the intensity of each product band and dividing by the total radioactivity in the lane or total products, as indicated in the figure legends.

T1 sequence (O14746 whole entry): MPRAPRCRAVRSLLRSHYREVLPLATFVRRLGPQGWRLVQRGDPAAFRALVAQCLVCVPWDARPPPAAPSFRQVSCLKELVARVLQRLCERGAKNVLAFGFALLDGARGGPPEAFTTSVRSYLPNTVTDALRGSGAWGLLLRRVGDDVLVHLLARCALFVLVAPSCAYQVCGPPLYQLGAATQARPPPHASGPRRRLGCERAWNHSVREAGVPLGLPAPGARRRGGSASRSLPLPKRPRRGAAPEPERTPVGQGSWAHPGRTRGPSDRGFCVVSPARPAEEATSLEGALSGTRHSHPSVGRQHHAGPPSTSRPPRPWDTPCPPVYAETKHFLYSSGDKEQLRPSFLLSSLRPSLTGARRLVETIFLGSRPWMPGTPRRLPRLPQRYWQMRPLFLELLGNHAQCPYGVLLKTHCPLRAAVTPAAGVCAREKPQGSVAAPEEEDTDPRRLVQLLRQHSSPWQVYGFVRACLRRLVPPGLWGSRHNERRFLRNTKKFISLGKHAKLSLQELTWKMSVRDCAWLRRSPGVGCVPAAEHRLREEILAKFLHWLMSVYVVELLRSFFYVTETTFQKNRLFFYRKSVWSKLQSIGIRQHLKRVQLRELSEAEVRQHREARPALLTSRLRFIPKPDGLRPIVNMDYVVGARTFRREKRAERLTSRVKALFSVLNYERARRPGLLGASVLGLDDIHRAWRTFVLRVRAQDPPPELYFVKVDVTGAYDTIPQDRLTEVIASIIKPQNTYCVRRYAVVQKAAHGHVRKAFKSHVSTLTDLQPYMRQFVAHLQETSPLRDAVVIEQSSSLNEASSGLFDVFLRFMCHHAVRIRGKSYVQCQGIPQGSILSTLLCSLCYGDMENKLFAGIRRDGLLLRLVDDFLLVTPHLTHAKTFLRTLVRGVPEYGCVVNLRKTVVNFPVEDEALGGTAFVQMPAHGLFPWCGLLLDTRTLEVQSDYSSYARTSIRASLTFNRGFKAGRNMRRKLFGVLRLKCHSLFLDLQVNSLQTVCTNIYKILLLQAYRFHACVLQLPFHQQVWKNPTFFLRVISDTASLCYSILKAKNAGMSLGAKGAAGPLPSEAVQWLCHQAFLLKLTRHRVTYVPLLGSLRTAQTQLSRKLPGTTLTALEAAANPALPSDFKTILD

Nc1ncnc2c1ncn2C1CC(O)C(COP(=O)(O)OP(=O)(O)OP(=O)(O)O)O1 (stereo not drawn) [dATP]
YIntercept (line, best-fit value) of ln(100-%LB) vs # telomere repeats (telomerase [1]; 0.5μM titrated dNTP): 4.31 and 3.25 and 4.01
YIntercept (line, best-fit value) of ln(100-%LB) vs # telomere repeats (telomerase [1]; 1μM titrated dNTP): 4.44 and 2.47 and 4.49
ln(100-%LB) (telomerase [1]; 1μM titrated dNTP, telomere repeat 3): 2.47 and 1.35 and 2.09
YIntercept (line, best-fit value) of ln(100-%LB) vs # telomere repeats (telomerase [1]; 5μM titrated dNTP): 4.00 and 3.98 and 2.64
ln(100-%LB) (telomerase [1]; 5μM titrated dNTP, telomere repeat 1): 3.97 and 2.20
ln(100-%LB) (telomerase [1]; 5μM titrated dNTP, telomere repeat 2): 3.54 and 1.95
ln(100-%LB) (telomerase [1]; 5μM titrated dNTP, telomere repeat 3): 3.04 and 3.01 and 1.68
YIntercept (line, best-fit value) of ln(100-%LB) vs # telomere repeats (telomerase [1]; 25μM titrated dNTP): 3.73 and 2.10
ln(100-%LB) (telomerase [1]; 25μM titrated dNTP, telomere repeat 1): 3.90 and 2.05
Processivity R 1/2 (telomerase [1]; indicated dNTP at 0.5 μM, Mean): 1.28
Processivity R 1/2 (telomerase [1]; indicated dNTP at 0.5 μM, n1-n3): 0.99 and 1.34 and 1.51
Processivity R 1/2 (telomerase [1]; indicated dNTP at 1 μM, Mean): 1.47
Processivity R 1/2 (telomerase [1]; indicated dNTP at 1 μM, n1-n3): 1.33 and 1.42 and 1.67
Processivity R 1/2 (telomerase [1]; indicated dNTP at 5 μM, Mean): 2.10
Processivity R 1/2 (telomerase [1]; indicated dNTP at 5 μM, n1-n3): 1.66 and 2.20 and 2.43
Processivity R 1/2 (telomerase [1]; indicated dNTP at 24 μM, Mean): 2.21
Processivity R 1/2 (telomerase [1]; indicated dNTP at 24 μM, n1-n3): 1.90 and 2.36 and 2.37
Percent of Total Product (telomerase [2]; terminated at rA3): 2.35%
Percent of Total Product (telomerase [2]; terminated at rA4): 1.56%
Percent of Total Product (telomerase [2]; terminated at rC1): 1.47%
Percent of Total Product (telomerase [2]; terminated at rC2): 0.77%
Percent of Total Product (telomerase [2]; terminated at rC6): 8.96%
Percent of Total Product (telomerase [2]; terminated at rU5 (first)): 4.92%
Percent of Total Product (telomerase [2]; terminated at rU5 (second, after translocation)): 0.73%
